Measurements taken from US20250041245A1, “ENDOXIFEN FOR TREATMENT OF CANCERS” (Atossa Therapeutics, Inc., priority 2021, published 2025).
“And” between values parts separate entries of the source, which are not always exact repeats. Equal entries are not always repeated. “Also recorded” adds a separate entry of the source.

Assays:
Assay type in all cases: cell-based, human
[1] = tested on: patient-derived tumor organoids (PDTOs), breast cancer; experiment: Endoxifen screen in patient-derived tumor organoids (PARIS Test): breast cancer; design: key to Personalization Category: Personalization categories range from High, Good, Moderate, Low, to None; Personalization categories range from High, Good, Moderate, Low, to None; Personalization categories range from High, Good, Moderate, Low, to None; Personalization categories range from High, Good, Moderate, Low, to None; Personalization categories range from High, Good, Moderate, Low, to None; key to Sensitivity Category: Sensitivity categories range from High, Good, Moderate, Low, to None; Sensitivity categories range from High, Good, Moderate, Low, to None; Sensitivity categories range from High, Good, Moderate, Low, to None; Sensitivity categories range from High, Good, Moderate, Low, to None; Sensitivity categories range from High, Good, Moderate, Low, to None; conditions: each line one patient sample
Procedure: (§1) This example describes screening endoxifen in patient-derived tumor organoids. Endoxifen was tested as a single agent on tumor organoids derived from patients diagnosed with various cancer types using a personalized cancer treatment screening assay (PARIS© Test, SEngine Precision Medicine). The screen utilized patient-derived tumor organoids (PDTOs) along with high-throughput drug screening and machine learning-guided data analysis to quantify the efficacy of endoxifen against samples derived from individual patients diagnosed with various cancer types. PDTOs are self-organizing, three-dimensional organoid structures that recapitulate structural, functional, and genomic aspects of in vivo organs. The PDTOs were grown in culture from patient tumor biopsy samples.
(§2) Fresh patient biopsy samples received following surgery were cleaned and purified. Immune cells (e.g., lymphocytes, blood cells), cancer-associated fibroblasts, and other non-tumor cells were removed to establish pure PDTOs for endoxifen testing. The tumor organoids were grown and expanded by supplying organ- and patient-specific growth factors and nutrients. The PDTOs were treated with increasing concentrations of endoxifen ranging from about 30 nM to about 10 μM, and the drug response was measured using a luminescence readout. A lower luminescence was indicative of a stronger drug response.
(§3) The results were analyzed using a “SEngine Precision Medicine” (SPM) scoring system to assess the sensitivity and personalization of each tumor organoid to endoxifen. The SPM score correlates with clinical outcomes, such that a higher SPM score for a specific PDTO-drug combination predicts a more favorable clinical outcome following treatment of the corresponding patient with the tested drug.
(§4) This example describes testing endoxifen efficacy against 17 distinct cancer types in patient-derived tumor organoids (PDTOs). Screening of PDTOs was performed as described in EXAMPLE 1. For each PDTO sample, the drug response was measured using a luminescent readout over a range of endoxifen concentrations. The drug response was evaluated based on the area under the fitted dose response curve (AUC) and the SPM scoring system. AUC values were normalized for each PDTO. Briefly, data points at each drug concentration were first normalized to a negative control, then a dose response drug curve was approximated using a four-parameter logistic model fitted to the normalized data points. The area under the curve was calculated from the normalized curve. Normalization allowed for comparison of AUC values between patient samples. The SPM scores were based on machine learning models that incorporate values for how well the drug kill patient cells (sensitivity metric), the relative drug responses of a patient to all other patients in a sample database (personalization metric), and knowledge of clinical outcomes for patients that had been evaluated with the personalized cancer screening assay (PARIS® Test, SEngine Precision Medicine).
(§5) The SPM scoring system evaluated whether a PDTO was unresponsive or responsive to endoxifen and the degree of drug response for PDTOs that were responsive to endoxifen. […] The sensitivity category was determined from the sensitivity metric and is a measure of overall cell death of a patient's cells in response to endoxifen at six concentrations. […]

[2] = tested on: patient-derived tumor organoids (PDTOs), myxofibrosarcoma; experiment: Endoxifen screen in PDTOs: myxofibrosarcoma; design: key to Personalization Category: Personalization categories range from High, Good, Moderate, Low, to None; Personalization categories range from High, Good, Moderate, Low, to None; Personalization categories range from High, Good, Moderate, Low, to None; Personalization categories range from High, Good, Moderate, Low, to None; Personalization categories range from High, Good, Moderate, Low, to None; key to Sensitivity Category: Sensitivity categories range from High, Good, Moderate, Low, to None; Sensitivity categories range from High, Good, Moderate, Low, to None; Sensitivity categories range from High, Good, Moderate, Low, to None; Sensitivity categories range from High, Good, Moderate, Low, to None; Sensitivity categories range from High, Good, Moderate, Low, to None; AUC: unit not given beside the values
Procedure: as §1, §2, §3, §4, §5

[3] = tested on: patient-derived tumor organoids (PDTOs), thyroid cancer; experiment: Endoxifen screen in PDTOs: thyroid cancer; design: key to Personalization Category: Personalization categories range from High, Good, Moderate, Low, to None; Personalization categories range from High, Good, Moderate, Low, to None; Personalization categories range from High, Good, Moderate, Low, to None; Personalization categories range from High, Good, Moderate, Low, to None; Personalization categories range from High, Good, Moderate, Low, to None; key to Sensitivity Category: Sensitivity categories range from High, Good, Moderate, Low, to None; Sensitivity categories range from High, Good, Moderate, Low, to None; Sensitivity categories range from High, Good, Moderate, Low, to None; Sensitivity categories range from High, Good, Moderate, Low, to None; Sensitivity categories range from High, Good, Moderate, Low, to None; AUC: unit not given beside the values
Procedure: as §1, §2, §3, §4, §5

IC50 ([2]; Homo sapiens, patient 1, four-parameter logistic fit): 7.25 µM
IC50 ([3]; Homo sapiens, patient 4, four-parameter logistic fit): 7.1 µM
SMILES: CC/C(=C(\c1ccc(O)cc1)c1ccc(OCCNC)cc1)c1ccccc1 [Endoxifen, 4-hydroxy-N-desmethyltamoxifen]
Response Category [1]: Moderate (moderate response (SPM 10-11)); also recorded: None (no response (SPM 1-8)); also recorded: Low (low response (SPM 9)); also recorded: Good (good response (SPM 12-13)); also recorded: Exceptional (exceptional response (SPM 14-15))
AUC ([1]; normalized area under fitted dose response curve): 0.8248 and 0.9311 and 0.8639 and 0.6798 and 0.8079 and 0.9835 and 0.8609 and 0.8997 and 0.8847 and 0.9811 and 0.9320 and 0.9911 and 0.9378 and 0.4774 and 0.5912
Sensitivity Category ([1]; overall cell death at six concentrations): Low and None and Moderate and Good
Personalization Category ([1]; response relative to other PDTOs): Moderate and None and Low and High and Good
SPM Score ([1]; score range 1-15): 10 and 1 (6×) and 9 (3×) and 13 (2×) and 11 and 4 and 14
Personalization Category ([2]; patient 1): None
Sensitivity Category ([2]; patient 1): None
AUC ([2]; patient 1, normalized area under fitted dose response curve): 0.9384
SPM Score ([2]; patient 1, score range 1-15): 1
Personalization Category ([3]; patient 4): None
Sensitivity Category ([3]; patient 4): None
AUC ([3]; patient 4, normalized area under fitted dose response curve): 0.9109
SPM Score ([3]; patient 4, score range 1-15): 1
